Experimental data from patent EP0719281B1, “MULTIPLE BRANCH PEPTIDE CONSTRUCTIONS FOR USE AGAINST HIV” (priority 1993, dated 1995).
“Also recorded” adds a separate entry of the source. Bridge positions count the residues as written; N and C are the ends. Square brackets hold non-standard residues; d marks the D form. Ends that are not written are not given here. I, II: the chains in the order shown. βAla = NCCC(=O)O

Columns and labels:
[1] = test system: CEM or C8166 cells; details: concentrations of 10^-7 to 10^-4M; 15 days
Experimental: (§1) An MTT assay, a colorimetric cell viability assay using 3-[4,5-Dimethylthiazol-2-yl] 2,5-diphenyltetrazolium bromide, was used to assess the effect of MBPCs on cell viability. CEM or C8166 cells (5x10^4) were cultured continuously (15 days) in the presence of various concentrations of MBPCs in the wells of 96-well microtiter plates in 200 µl final volume of RPMI 1640 medium supplemented with 5% fetal calf serum, 1% glutamine, 1% streptomycin-penicillin (available from Gibco of Irvine, Scotland) in a humidified atmosphere with 5% CO2. Every 3 to 4 days, an MTT assay was performed on 100 µl of cells suspension and MBPC were added to cell culture and the volume completed to 200 µl.

[2] = test system: 8E5 cells; experiment: Toxicity in the cell fusion test (MTT assay or trypan blue exclusion); details: Concentration (M) 5x10^-5
Experimental: Toxicity was evaluated by either MTT assay (described below) or trypan blue exclusion technique.
as §1

[3] = test system: RT-deficient HIV-I(IIIB) isolate; experiment: Inhibition of HIV-I induced cell fusion (8E5 cells co-cultivated with PHA stimulated human PBLs); type: cell-based; details: for Inhibition of HIV-I induced cell fusion (number of syncytia): after 24 hours
Excerpt: 50 x 10^3 8E5 cells chronically infected with a RT-deficient HIV-I(IIIB) isolate, were co-cultivated with 150 x 10^3 phytohemagglutinin (PHA) stimulated human peripheral blood lymphocytes (PBLs) in the presence of the indicated peptide in 96-well plates. The MBPCs used are described by the peptides attached, and the number thereof, to a core lysine matrix, which is designated MLC. All amino acids used for this experiment were in dextro form.

[4] = test system: HIV-1(89.6); experiment: Infection of and syncytia formation in human primary macrophages; type: cell-based; details: MBPC 5x10^-5M; 10,000 TCID50; 4 days post-infection
Excerpt: Mononuclear cells were isolated from leukophoresis units enriched for monocytes by Ficoll-Hypaque density separation. Macrophages were purified by adherence to plastic in RPMI 1640 supplemented with 10% fetal calf serum and 5% human AB serum. […] After thorough washing, the cells were fed again with medium and analyzed for HIV-1 p24^gag production and syncytia formation 4 days post-infection.

Compound	toxicity to cells (MTT assay) [1]	Toxicity [2]	Toxicity ([2]; listed as [RKSIHIGPGRAFYT]4-MLC)	syncytia formation / cell fusion (in words) [3]	Inhibition of HIV-I induced cell fusion (number of syncytia) ([3]; Concentration (M) 5x10^-5)	Inhibition of HIV-I induced cell fusion (number of syncytia) ([3]; Concentration (M) 5 x10^-6)	Inhibition of HIV-I induced cell fusion (number of syncytia) ([3]; Concentration (M) 5x10^-7)	infection of macrophages (in words) [4]
C[C@H](NC(=O)[C@H](CCCNC(=N)N)NC(=O)CNC(=O)[C@@H]1CCCN1C(=O)CN)C(=O)N[C@@H](Cc1ccccc1)C(=O)NCCCC[C@H](NC(=O)[C@H](Cc1ccccc1)NC(=O)[C@H](C)NC(=O)[C@H](CCCNC(=N)N)NC(=O)CNC(=O)[C@@H]1CCCN1C(=O)CN)C(=O)NCCCC[C@H](NC(=O)[C@H](CCCCNC(=O)[C@H](Cc1ccccc1)NC(=O)[C@H](C)NC(=O)[C@H](CCCNC(=N)N)NC(=O)CNC(=O)[C@@H]1CCCN1C(=O)CN)NC(=O)[C@H](Cc1ccccc1)NC(=O)[C@H](C)NC(=O)[C@H](CCCNC(=N)N)NC(=O)CNC(=O)[C@@H]1CCCN1C(=O)CN)C(=O)NCCCC[C@H](NC(=O)[C@H](CCCCNC(=O)[C@H](CCCCNC(=O)[C@H](Cc1ccccc1)NC(=O)[C@H](C)NC(=O)[C@H](CCCNC(=N)N)NC(=O)CNC(=O)[C@@H]1CCCN1C(=O)CN)NC(=O)[C@H](Cc1ccccc1)NC(=O)[C@H](C)NC(=O)[C@H](CCCNC(=N)N)NC(=O)CNC(=O)[C@@H]1CCCN1C(=O)CN)NC(=O)[C@H](CCCCNC(=O)[C@H](Cc1ccccc1)NC(=O)[C@H](C)NC(=O)[C@H](CCCNC(=N)N)NC(=O)CNC(=O)[C@@H]1CCCN1C(=O)CN)NC(=O)[C@H](Cc1ccccc1)NC(=O)[C@H](C)NC(=O)[C@H](CCCNC(=N)N)NC(=O)CNC(=O)[C@@H]1CCCN1C(=O)CN)C(=O)NCCC(=O)O [MBPC.3, (GPGRAF)8-(K)4-(K)2-K-βA-OH]	not toxic							
C[C@H](NC(=O)[C@@H](CCCNC(=N)N)NC(=O)CNC(=O)[C@@H]1CCCN1C(=O)CN)C(=O)N[C@@H](Cc1ccccc1)C(=O)NCCCC[C@H](NC(=O)[C@H](Cc1ccccc1)NC(=O)[C@H](C)NC(=O)[C@@H](CCCNC(=N)N)NC(=O)CNC(=O)[C@@H]1CCCN1C(=O)CN)C(=O)NCCCC[C@H](NC(=O)[C@H](CCCCNC(=O)[C@H](Cc1ccccc1)NC(=O)[C@H](C)NC(=O)[C@@H](CCCNC(=N)N)NC(=O)CNC(=O)[C@@H]1CCCN1C(=O)CN)NC(=O)[C@H](Cc1ccccc1)NC(=O)[C@H](C)NC(=O)[C@@H](CCCNC(=N)N)NC(=O)CNC(=O)[C@@H]1CCCN1C(=O)CN)C(=O)NCCCC[C@H](NC(=O)[C@H](CCCCNC(=O)[C@H](CCCCNC(=O)[C@H](Cc1ccccc1)NC(=O)[C@H](C)NC(=O)[C@@H](CCCNC(=N)N)NC(=O)CNC(=O)[C@@H]1CCCN1C(=O)CN)NC(=O)[C@H](Cc1ccccc1)NC(=O)[C@H](C)NC(=O)[C@@H](CCCNC(=N)N)NC(=O)CNC(=O)[C@@H]1CCCN1C(=O)CN)NC(=O)[C@H](CCCCNC(=O)[C@H](Cc1ccccc1)NC(=O)[C@H](C)NC(=O)[C@@H](CCCNC(=N)N)NC(=O)CNC(=O)[C@@H]1CCCN1C(=O)CN)NC(=O)[C@H](Cc1ccccc1)NC(=O)[C@H](C)NC(=O)[C@@H](CCCNC(=N)N)NC(=O)CNC(=O)[C@@H]1CCCN1C(=O)CN)C(=O)NCCC(=O)O [[GPG(R)DAF]8-MLC]		Toxic						
I: RKSIHIGPGRAFYTKK[βAla] / II: RKSIHIGPGRAFYTK / III: RKSIHIGPGRAFYT / IV: RKSIHIGPGRAFYT (amide I:15-IV:C, I:16-II:C, II:15-III:C) [MBPC.5]			some toxicity; also recorded: Toxic					
[Ac-GPGRAF]8-MLC				significant loss of activity	- (- indicates the total absence of syncytia in the well)	+++	+++	
[GPGRAF]8-MLCD					+++	+++	+++	significantly less active than [GPGRAF]8-MLC
[GPGRA]8-MLC				did not inhibit cell fusion	+++	+++	+++	
[GPGR]8-MLC				did not inhibit cell fusion	+++	+++	+++	
[IGPGRAF]8-MLC				significant loss of activity	- (- indicates the total absence of syncytia in the well)	±	+++	
[RKSIHKGPGRAFYT]4-MLC		Toxic				- (- indicates the total absence of syncytia in the well)	+++	
[RKSIHTGPGRAFYT]4-MLC		Toxic				- (- indicates the total absence of syncytia in the well)	+++	
